Residues, ends and D or L forms follow the SMILES beside them. *: point of attachment. 5FAM = O=C1OC2(c3ccc(O)cc3Oc3cc(O)ccc32)c2ccc(C(=O)*)cc21; Ahx = NCCCCCC(=O)O; X1 = CNCC*
Tests used:
[1] = target: T1, L3MBTL1 3xMBT (Homo sapiens, UniProt Q9Y468); type: binding; settings: site H4K20me1
T1 sequence (Q9Y468 197-526 isoform Q9Y468-1): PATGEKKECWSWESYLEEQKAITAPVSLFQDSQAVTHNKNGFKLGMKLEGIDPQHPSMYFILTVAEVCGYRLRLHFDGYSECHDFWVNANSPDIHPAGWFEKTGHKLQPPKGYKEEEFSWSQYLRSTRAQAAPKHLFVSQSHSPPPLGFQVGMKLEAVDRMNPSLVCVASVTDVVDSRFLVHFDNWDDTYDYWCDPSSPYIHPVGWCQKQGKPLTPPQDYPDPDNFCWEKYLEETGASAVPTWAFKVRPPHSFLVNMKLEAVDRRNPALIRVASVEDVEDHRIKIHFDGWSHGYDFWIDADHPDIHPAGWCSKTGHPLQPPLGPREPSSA

[2] = target: 53BP1 Tudor domain (Homo sapiens, UniProt Q12888); assay: Fluorescence polarization binding of 53BP1 Tudor domain to histone H4 peptides; settings: FP; result in words; methyl-lysine analogue peptide, site H4K20me2
Sequence of 53BP1 Tudor domain (Q12888 1484-1603): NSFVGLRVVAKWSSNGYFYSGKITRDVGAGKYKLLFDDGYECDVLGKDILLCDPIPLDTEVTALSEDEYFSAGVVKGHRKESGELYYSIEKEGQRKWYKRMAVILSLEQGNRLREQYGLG

ΔG(KCme) ([1]; FP, 25 °C, binding free energy, methyl-lysine analogue peptide)	ΔΔG(exp) ([1]; ΔG(KCme) – ΔG(Kme) from FP Kd)	binding to the methyl-lysine analogue containing target [2]	Compound
–24.6 ± 0.2 kJ/mol	1.22 ± 0.072 kcal/mol	–	CC[C@H](C)[C@H](NC(=O)[C@H](CC(N)=O)NC(=O)[C@H](CC(=O)O)NC(=O)[C@H](CCCNC(=N)N)NC(=O)[C@H](CC(C)C)NC(=O)[C@@H](NC(=O)[C@H](CSCCNC)NC(=O)[C@H](CCCNC(=N)N)NC(=O)[C@H](Cc1c[nH]cn1)NC(=O)[C@H](CCCNC(=N)N)NC(=O)[C@H](CCCCN)NC(=O)[C@H](C)NC(=O)CNC(=O)CNC(=O)[C@H](CCCCN)NC(=O)CCCCCNC(=O)c1ccc2c(c1)C(=O)OC21c2ccc(O)cc2Oc2cc(O)ccc21)C(C)C)C(=O)N[C@@H](CCC(N)=O)C(N)=O [Fl-H4(12–27)KC20me1] ({5FAM-Ahx}-KGGAKRHRC(X1)VLRDNIQ-NH2)
–	–	no binding	fluoresceine-KGGAKRHRKC(me1)VLRDNIQ [Fl-H4(12–27)KC20me2]

Reference: article PMC3265130 (ACS Chemical Biology, 2011)
